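Following 48 hours of exposure in 96-well plates, responses at five concentrations were used to interpolate endpoints linearly. TGI is the concentration that stops growth completely.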
Tests used:
Test in all cases: growth of human tumour cells (NCI), 48 h
A549 NSCLC = system: A549 NSCLC
COLO 205 colon = system: COLO 205 colon
HCC-2998 colon = system: HCC-2998 colon
HOP-92 NSCLC = system: HOP-92 NSCLC
KM12 colon = system: KM12 colon
MCF7 breast = system: MCF7 breast
SF-295 CNS = system: SF-295 CNS
SK-MEL-28 melanoma = system: SK-MEL-28 melanoma
SNB-19 CNS = system: SNB-19 CNS
UO-31 renal = system: UO-31 renal
LOX IMVI melanoma = system: LOX IMVI melanoma

| SMILES | TGI (A549 NSCLC) | TGI (COLO 205 colon) | TGI (HCC-2998 colon) | TGI (HOP-92 NSCLC) | TGI (KM12 colon) | TGI (MCF7 breast) | TGI (SF-295 CNS) | TGI (SK-MEL-28 melanoma) | TGI (SNB-19 CNS) | TGI (UO-31 renal) | TGI (LOX IMVI melanoma) |
| --- | --- | --- | --- | --- | --- | --- | --- | --- | --- | --- | --- |
| C=CCC(CCC(C)=O)(C(=O)OCC)C(=O)OCC | > 100 µM | > 100 µM | > 100 µM | > 100 µM | > 100 µM | > 100 µM | > 100 µM | > 100 µM | > 100 µM | > 100 µM | – |
| CCN1CCC(O)(c2ccc([N+](=O)[O-])cc2)C(C(=O)c2ccc([N+](=O)[O-])cc2)C1 (stereo not drawn) | > 100 µM | 28.1 µM | 32.8 µM | – | 32.1 µM | 31.4 µM | > 100 µM | 33.5 µM | > 100 µM | 36.8 µM | 38.6 µM |
| Cc1nc2sc3cccc(Cl)c3n2c(=O)c1N=Nc1ccc(Cl)cc1 | > 100 µM | > 100 µM | – | > 100 µM | > 100 µM | > 100 µM | > 100 µM | > 100 µM | > 100 µM | – | > 100 µM |
| O=C(NCCC1CNc2ccccc21)OCc1ccccc1 (stereo not drawn) | > 100 µM | > 100 µM | > 100 µM | > 100 µM | > 100 µM | > 100 µM | > 100 µM | > 100 µM | > 100 µM | > 100 µM | – |
| O=c1[nH]c(N/N=C\C(O)C(O)C(O)C(O)CO)nc2ccccc12 (stereo not drawn) | > 100 µM | > 100 µM | – | > 100 µM | > 100 µM | > 100 µM | > 100 µM | > 100 µM | > 100 µM | > 100 µM | > 100 µM |
| Cc1ccc(N=N/C(=N/NC(=O)c2ccccc2)c2ccc(N(CCC#N)CCC#N)cc2C)cc1 | > 100 µM | > 100 µM | > 100 µM | – | > 100 µM | > 100 µM | > 100 µM | – | > 100 µM | > 100 µM | – |
| O=C(c1ccc(Cl)cc1)N(C(=O)N1CCCCC1)c1ccccc1 | – | > 100 µM | – | – | > 100 µM | > 100 µM | – | > 100 µM | > 100 µM | > 100 µM | > 100 µM |
| Cc1cc(C)c(-c2no/c(=N\S(=O)(=O)c3ccc(Cl)cc3)o2)c(C)c1 | > 100 µM | > 100 µM | > 100 µM | – | > 100 µM | 56.1 µM | > 100 µM | > 100 µM | > 100 µM | > 100 µM | – |
| COC(CN(C)C(=S)Nc1cccc2ccccc12)OC | > 10 µM | > 10 µM | > 10 µM | – | > 10 µM | > 10 µM | > 10 µM | > 10 µM | > 10 µM | > 10 µM | > 10 µM |
| COc1cc(C2c3cc4c(cc3OC(NN)C2C)OCO4)cc(OC)c1O (stereo not drawn) | 53.5 µM | 40.4 µM | 29.6 µM | > 100 µM | 41.7 µM | > 100 µM | 14.7 µM | 33.9 µM | > 100 µM | 61.8 µM | – |
| COC(=O)c1cc(S(=O)(=O)NC2=NCC(C)NN2)c(S)cc1Cl (stereo not drawn) | > 100 µM | > 100 µM | > 100 µM | – | > 100 µM | > 100 µM | > 100 µM | > 100 µM | > 100 µM | > 100 µM | > 100 µM |
| CCN(/C=C1/C(=O)C(c2ccccc2)N(c2ccccc2)C1=O)CC (stereo not drawn) | > 10 µM | > 10 µM | > 10 µM | – | > 10 µM | > 10 µM | > 10 µM | > 10 µM | > 10 µM | > 10 µM | > 10 µM |
| COC(=O)C1CCC(=O)N1CN(C(C)=O)c1cccc(O)c1 (stereo not drawn) | > 100 µM | > 100 µM | – | > 100 µM | > 100 µM | > 100 µM | > 100 µM | > 100 µM | > 100 µM | > 100 µM | > 100 µM |
| CC(=O)NC1C(OCC(=O)NCCNc2ccc([N+](=O)[O-])c3[nH]c4ccccc4c(=O)c23)C(O)C(CO)OC1(C)OCc1ccccc1 (stereo not drawn) | > 100 µM | > 100 µM | > 100 µM | – | > 100 µM | > 100 µM | > 100 µM | – | > 100 µM | > 100 µM | > 100 µM |
| CC1(C)O[C@@H]2[C@@H](COC(C)(C)O[C@H]2C2SCCCS2)O1 | > 100 µM | > 100 µM | > 100 µM | > 100 µM | > 100 µM | > 100 µM | > 100 µM | > 100 µM | > 100 µM | > 100 µM | – |
| Cn1c2ccccc2c(=O)c2c(O)cc3c(c21)C1OCC(C)(O)C1O3 (stereo not drawn) | > 100 µM | > 100 µM | > 100 µM | – | – | > 100 µM | – | > 100 µM | > 100 µM | 36.6 µM | – |
| Cc1cc2nc3c(C#N)c(-c4ccccc4)/c(=C\Nc4ccc(F)cc4)c(=O)n3c2cc1C | > 100 µM | > 100 µM | > 100 µM | – | > 100 µM | > 100 µM | > 100 µM | > 100 µM | 80.9 µM | > 100 µM | > 100 µM |
| Cc1cc(O)c(/C=N/C(N)=S)c(=O)o1 | > 100 µM | > 100 µM | > 100 µM | > 100 µM | > 100 µM | > 100 µM | > 100 µM | – | > 100 µM | > 100 µM | – |
